Earlier results, collected in US20100331420A1, “Combination Therapies for the Treatment of Obesity” (priority 2009, published 2010).

Conditions: published studies of each weight loss medication

SMILES | weight loss of body weight for drug compared with placebo
CCN[C@@H](C)Cc1cccc(C(F)(F)F)c1 [dexfenfluramine] | about 5%
CCCCCCCCCCC[C@@H](C[C@@H]1OC(=O)[C@H]1CCCCCC)OC(=O)[C@H](CC(C)C)NC=O [orlistat] | about 5%
CC(C)CC(N(C)C)C1(c2ccc(Cl)cc2)CCC1 (stereo not drawn) [sibutramine] | about 5%
